Ends that are not written are not given here.
How the values were obtained:
Sf9 cells = assay: CPP-mediated enhancement of Cy3-dsRNA uptake into insect cells; type: cell-based, Spodoptera frugiperda
From the text: (§1) Sample preparation and analysis methods were based on those previously reported (Jafari et al. (201 4) “Serum stability and physicochemical characterization of a novel amphipathic peptide C6M 1 for siRNA delivery”, PLoS One, 9(5), e97797; and Gillet et al. (2017) “Investigating Engineered Ribonucleoprotein Particles to Improve Oral RNAi Delivery in Crop Insect Pests”, Frontiers in Physiology, 8(256), doi: 10.3389/fphys.2017.00256). Reagents are described in Examples 1 and 2. Nanocomplex samples were prepared in one of several ways, depending on type of CPP, RNA, or assay. For insect cell-based assays with CPP-FAM or CPP·mRNA, increasing amounts of CPP (from 25 μM to 100 μM, in 25 μM increments) were used alone or mixed with […] mRNA in water and incubated at 25° C. for 15 minutes prior to cell treatment. […] Final optimal CPP concentration was assessed by amount of fluorescent signal apparent within cells. […] Final optimal molar ratio selected for cell experiments were determined by increase of the apparent size of the Cy3-dsRNA band on a native agarose gel (FIG. 2A and FIG. 2B), and/or appearance and increase in size of the complex peak detected by a Zetasizer Ultra (Malvern Panalytical, Malvern, United Kingdom) DLS instrument (FIG. 2C). […] Final optimal BAPC1 concentration was assessed by amount of fluorescent signal apparent within cells. […]

S2 cells = assay: as above; type: cell-based, Drosophila melanogaster
From the text: as §1

[1] = same amount as used in the complexes, no CPP

Substance | fluorescent signal in single-component treated cells (Sf9 cells; [1]) | fluorescent signal of YFP or Cy3 in single-component treated cells (S2 cells; [1]) | internalization of Cy3-dsRNA versus Cy3-dsRNA alone (Sf9 cells; 5.9 μg BAPC1 and 100 ng Cy3-dsRNA, N/P ratio of 5, 4 hours) | internalization of Cy3-dsRNA versus Cy3-dsRNA alone (S2 cells; 17.6 μg BAPC1 and 100 ng Cy3-dsRNA, N/P ratio of 15)
UCCUUGAUAUCCGGUUCGGUA / AGGAACUAUAGGCCAAGCCAU (Cy3 at each 5' end, chemistry not fully specified; one strand is listed 3' to 5') [Cy3-siRNA] | Low or no fluorescent signal | Low or no fluorescent signal |  | 
bis(FLIVI)-K-KKKK; bis(FLIVIGSII)-K-KKKK (chain 1 FLIVIK(FLIVI)KKKK; chain 2 FLIVIGSIIK(FLIVIGSII)KKKK; also: forms branched peptide capsules) [BAPC1] |  |  | Increased internalization of labeled dsRNA | increased internalization of labeled dsRNA

Source: patent publication US20240041050A1, “CELL PENETRATING PEPTIDE MEDIATED RNA TRANSDUCTION WITHIN INSECT CELLS” (PIONEER HI-BRED INTERNATIONAL, INC., priority 2020, published 2024)
